Values joined by “and” are separate entries in the source; they are usually repeats but may differ in a detail not shown here. Equal entries are not always repeated.
Assays:
[1] = tested on: differentiated PC12 cells; experiment: Neurite toxicity: percentage of differentiated PC12 cells with neurites after 24 h incubation; conditions: for inhibition of neurite outgrowth, dose responsiveness: increasing concentrations, 24 hrs, FIG. 1; for reduction in the percentage of cells with neurites: strong dose; for reduction in cells with neurites compared to no treatment control: Example 2, p<0.001
Experimental: PC-12 cells were maintained in Dulbecco's Modified Eagle Media (DMEM; Gibco) with 10% calf serum (Turbo calf serum, Invitrogen), 5% horse serum (JRH Biosciences, Victoria, Australia) and 1% penicillin/streptomycin (Invitrogen) at 37° C., in a 5% CO2 atmosphere. Differentiation into neurons was achieved by seeding cells at a density of 15,000 cells/well in 24-well plates (Falcon Becton Dickinson), on 13 mm glass cover slips (Menzel Glaser, Germany) coated with laminin (Invitrogen) and poly-DL-ornithine (Sigma) in DMEM plus 1% horse serum and 50 ng/mL of nerve growth factor (NGF) (Sigma). The cells were incubated for 72 hours under differentiation conditions, before use in the neurite outgrowth assays below.
Working concentrations were diluted in PC12 cell differentiation medium as above. Treatments consisted of a 24 hour incubation in differentiation media with various concentrations of either agent.
Outgrowing projections were considered neurites if they were greater than a cell body width (10 μm), essentially as previously described. Images of all neurons in thirty randomly selected fields were digitally captured using an Olympus BX60 fluorescence microscope with a UPIanFI 40×/0.75 objective lens and a Zeiss Axiocam HRc digital camera and Zeiss Axiovision 3.1 software. Neurons in all fields were counted per condition and the number of cells with neurites expressed as a percentage of total cells present and error expressed as the standard error of the mean (sem). Each experiment was conducted in triplicate and the results pooled. Statistical significance of data was analysed using ANOVA followed by the Bonferroni post-hoc test.
Neurite toxicity was determined as the percent of cells comprising neurite outgrowths as described in Example 1.

[2] = tested on: differentiated PC12 cells; experiment: Neurite length (longest neurite per neuron) in differentiated PC12 cells; format: cell-based
Experimental: Further to the above described analysis of cells containing neurites, the longest neurite per neuron present in each frame was measured using Image J open source software (NIH, USA).

PC12 cells = tested on: PC12 cells
Experimental: A serial dilution was also conducted for phenoxodiol to determine the concentration which would not affect normal growth of the differentiated cells. […] Working concentrations were diluted in PC12 cell differentiation medium as above.

[3] = tested on: differentiated PC12 cells; experiment: βIII-tubulin immunocytochemistry of treated differentiated PC12 cells; format: cell-based; conditions: 24 hrs
Source text: Further, immunocytochemistry was used to visualise the neurite toxicity effects described above. To do so, following the treatment period, cells were washed with PBS, fixed with 4% paraformaldehyde and permeabilised with ice-cold methanol. Neurons were immunostained for the neuronal marker βIII-tubulin (Promega; Madison, Wisconson, USA) and a Cy3-conjugated anti-mouse antibody (Invitrogen) was used to visualise the staining.

[4] = tested on: differentiated PC12 cells; experiment: Recovery from cisplatin-induced neurite toxicity (24 h drug, 24 h wash-out, 24 h phenoxodiol); format: cell-based; conditions: after 48 hrs of recovery
Experimental: To determine whether phenoxodiol could have an effect on recovery from cisplatin- or paclitaxel-induced neurite toxicity by exacerbation, reversal, retardation or facilitation of repair, recovery experiments were performed. When conducting the recovery experiments, the concentrations of phenoxodiol tested were decreased by 1 log to 10 nM 100 nM and 1 μM.

[5] = patients receiving therapy; cited from earlier work

**Q.** Which “inhibition of neurite outgrowth, dose responsiveness” value [1] does the source give for `CC(=O)O[C@H]1C(=O)[C@@]2(C)[C@H]([C@H](OC(=O)c3ccccc3)[C@]3(O)C[C@H](OC(=O)[C@H](O)[C@@H](NC(=O)c4ccccc4)c4ccccc4)C(C)=C1C3(C)C)[C@]1(OC(C)=O)CO[C@@H]1C[C@@H]2O` [paclitaxel] here?
**A.** dose response in inhibition of neurite outgrowth

**Q.** And the “decrease in the percentage of cells possessing neurites” value ([1]; paclitaxel 0.156 μg/mL (0.18 μM), moderate dose, 24 h, Example 1)?
**A.** 33%

**Q.** And the “reduction in the percentage of cells with neurites” value ([1]; paclitaxel 2.5 μg/mL (2.93 μM), 24 h, Example 1)?
**A.** 73.6%

**Q.** What about the “reduction in cells with neurites compared to no treatment control” value ([1]; paclitaxel moderate dose (0.156 μg/ml)) of the same compound?
**A.** 58%

**Q.** And the “reduction in cells with neurites compared to no treatment control” value ([1]; paclitaxel strong dose (2.4 μg/ml/2.93 μM))?
**A.** 72%

**Q.** And the “neurite length compared to the no treatment control” value ([2]; paclitaxel alone, both concentrations used, p<0.001)?
**A.** reduced neurite length

**Q.** And the “cytotoxicity at the chosen concentrations” value (PC12 cells)?
**A.** did not produce cytotoxicity

**Q.** For `N.N.[Cl][Pt][Cl]` [cisplatin, Cis-diamine-dichloro-platinum], which “reduction in percentage of cells with neurites” value ([1]; cisplatin 1 μg/mL (3.33 μM), moderate dose, 24 h, Example 1) is on record?
**A.** 31.9%

**Q.** And the “reduction in the percentage of cells with neurites” value ([1]; cisplatin 20 μg/mL (66.65 μM), 24 h, Example 1)?
**A.** 65.8%

**Q.** What about the “neurite toxicity (percent neurites)” value ([1]; cisplatin alone 1 μg/ml, Example 2, ANOVA, t-test P<0.02) of the same compound?
**A.** non-significant (n.s.) trend for moderate toxicity

**Q.** What about the “decrease in percent neurites compared to control” value ([1]; cisplatin alone 20 μg/ml, Example 2, P<0.001) of the same compound?
**A.** 42%

**Q.** What about the “inhibition of neurite outgrowth, dose responsiveness” value [1] of the same compound?
**A.** dose response in inhibition of neurite outgrowth

**Q.** What about the “average neurite length of the remaining neurites” value ([2]; cisplatin alone) of the same compound?
**A.** no significant effect on the average neurite length

**Q.** What about the “percentage of cells bearing neurites compared to control (βIII-tubulin staining)” value ([3]; cisplatin 20 μg/ml) of the same compound?
**A.** decreased the percentage of cells bearing neurites

**Q.** And the “neurite toxicity compared to the no treatment control” value ([4]; cisplatin 1 μg/ml)?
**A.** no neurite toxicity

**Q.** And the “neurite toxicity compared to the no treatment control” value ([4]; cisplatin 20 μg/ml, p<0.001)?
**A.** greater than 50%

**Q.** And the “patients experiencing mild neuropathy” value [5]?
**A.** around 40%

**Q.** And the “patients experiencing severe neuropathy” value [5]?
**A.** approximately 4%

**Q.** With `Oc1ccc(C2=Cc3ccc(O)cc3OC2)cc1` [phenoxodiol, 2H-1-benzopyran-7-0,1,3-[4-hydroxyphenyl]] as the compound, how does the “sensitivity of neurite toxicity to the protective effect relative to cytotoxic and anti-proliferative effects in cancer cell lines” value ([1]; PC12 neuronal cell model vs a variety of cancer cell lines) read?
**A.** approximately 10 fold

**Q.** What about the “neurite toxicity in combination, compared to phenoxodiol 10 μM alone” value ([1]; phenoxodiol 10 μM + cisplatin 1 μg/ml (P<0.01) or 20 μg/ml (P<0.001)) of the same compound?
**A.** increased toxicity

**Q.** What about the “neurite toxicity in combination, compared to phenoxodiol 10 μM alone” value ([1]; phenoxodiol 10 μM + paclitaxel, both concentrations (P<0.001)) of the same compound?
**A.** increased toxicity

**Q.** What about the “effect on percent neurites” value ([1]; phenoxodiol alone 10 μM, 24 h, P<0.001 vs no treatment control) of the same compound?
**A.** significant neurite toxicity

**Q.** And the “average neurite length compared to no treatment control” value ([2]; phenoxodiol 10 μM alone, p<0.001)?
**A.** significant reductions in average neurite length

**Q.** And the “average neurite length compared to no treatment control” value ([2]; phenoxodiol 10 μM in combination with Cisplatin and Paclitaxel, p<0.001)?
**A.** significant reductions in average neurite length

**Q.** What about the “cell and neurite toxicity in βIII-tubulin stained cells” value ([3]; phenoxodiol 10 μm) of the same compound?
**A.** Significant cell and neurite toxicity

**Q.** And the cytotoxicity (PC12 cells; 10 μM, data not shown)?
**A.** considerable cytotoxicity

**Q.** And the “effect on cell death or neurite outgrowth” value (PC12 cells; doses up to 1 μM, data not shown)?
**A.** no effect on cell death or neurite outgrowth

**Q.** What about the “maximal concentration tested that did not affect survival of PC12 cells” value (PC12 cells; serial dilution) of the same compound?
**A.** 1 μM and 3.2 μg/ml
